The CheMixHub viscosity set

Test: xn = mol fraction of the nth substance listed

CCOCCO + O=C1CCCCC1
298.15 K, 101 kPa
Conditions	viscosity [mPa·s]
x2 = 0.0926	1.684
x2 = 0.1867	1.587
x2 = 0.2824	1.529
x2 = 0.3797	1.494
x2 = 0.4787	1.469
x2 = 0.5793	1.472
x2 = 0.6818	1.506
x2 = 0.786	1.564
x2 = 0.892	1.691

CCOCCO + O=C1CCCO1
303.15 K, 101.33 kPa
Conditions	viscosity [mPa·s]
x1 = 0.0345	1.722
x1 = 0.0509	1.708
x1 = 0.0767	1.687
x1 = 0.1125	1.658
x1 = 0.2033	1.603
x1 = 0.3137	1.561
x1 = 0.4404	1.544
x1 = 0.5421	1.538
x1 = 0.6504	1.535
x1 = 0.8807	1.541
x1 = 0.9372	1.538
x1 = 0.9693	1.553

CNC(C)=O + O=C1CCCO1
viscosity [mPa·s], 101 kPa
Conditions	x1 = 0.0549	x1 = 0.1816	x1 = 0.2715	x1 = 0.3602	x1 = 0.4477	x1 = 0.5352	x1 = 0.6411	x1 = 0.7239	x1 = 0.9033
303.15 K	1.516	1.586	1.642	1.719	1.82	1.99	2.215	2.45	3.147
308.15 K	1.408	1.452	1.51	1.572	1.662	1.78	1.979	2.178	2.799
313.15 K	1.338	1.343	1.393	1.447	1.521	1.626	1.805	1.967	2.515
318.15 K	1.213	1.247	1.281	1.334	1.403	1.514	1.665	1.8	2.226

Oc1ccc(Cl)cc1 + O=Cc1ccccc1
308.15 K, 101.33 kPa
Conditions	viscosity [mPa·s]
x2 = 0.11	5.75
x2 = 0.304	3.8
x2 = 0.485	3.01
x2 = 0.56	2.495
x2 = 0.62	2.2
x2 = 0.728	1.79
x2 = 0.907	1.388

CCOCCO + O=S1(=O)CCCC1
303.15 K
Conditions	viscosity [mPa·s]
101 kPa, x2 = 0.0459	1.145
101 kPa, x2 = 0.1045	0.887
101 kPa, x2 = 0.1957	0.692
101 kPa, x2 = 0.2957	0.877
101 kPa, x2 = 0.3504	1.721
101 kPa, x2 = 0.3966	2.176
101 kPa, x2 = 0.4471	2.684
101 kPa, x2 = 0.4987	3.644
101 kPa, x2 = 0.5514	4.636
101 kPa, x2 = 0.5999	5.66
101 kPa, x2 = 0.6984	6.898
101 kPa, x2 = 0.8002	8.224
101 kPa, x2 = 0.8997	9.136
101.33 kPa, x1 = 0.042	8.909
101.33 kPa, x1 = 0.0712	7.997
101.33 kPa, x1 = 0.109	7.117
101.33 kPa, x1 = 0.1849	5.742
101.33 kPa, x1 = 0.2899	4.443
101.33 kPa, x1 = 0.3942	3.612
101.33 kPa, x1 = 0.5561	2.759
101.33 kPa, x1 = 0.6236	2.472
101.33 kPa, x1 = 0.6586	2.349
101.33 kPa, x1 = 0.7385	2.108
101.33 kPa, x1 = 0.7622	2.027
101.33 kPa, x1 = 0.8406	1.843
101.33 kPa, x1 = 0.9162	1.688
101.33 kPa, x1 = 0.9539	1.619

CCOCCO + O=[N+]([O-])c1ccccc1
298.15 K, 101 kPa
Conditions	viscosity [mPa·s]
x2 = 0.0476	1.852
x2 = 0.1095	1.858
x2 = 0.2104	1.873
x2 = 0.3134	1.893
x2 = 0.4103	1.916
x2 = 0.4566	1.925
x2 = 0.5011	1.932
x2 = 0.5459	1.936
x2 = 0.6004	1.94
x2 = 0.7008	1.937
x2 = 0.8017	1.921
x2 = 0.8989	1.887
x2 = 0.9525	1.853

Cc1cccc(Cl)c1 + OC1CCCCC1
303.15 K, 101 kPa
Conditions	viscosity [mPa·s]
x2 = 0.1126	5.006
x2 = 0.222	9.158
x2 = 0.3285	13.26
x2 = 0.4321	17.37
x2 = 0.533	21.44
x2 = 0.6313	25.48
x2 = 0.727	29.41
x2 = 0.8203	33.31
x2 = 0.9113	37.2

CC(C)CCO + OCC(O)CO
viscosity [mPa·s], 100 kPa
Conditions	x1 = 0.0692	x1 = 0.1425	x1 = 0.2195	x1 = 0.3027	x1 = 0.3954	x1 = 0.498	x1 = 0.6042	x1 = 0.7235	x1 = 0.8535
298.15 K	879.2	810.7	738.6	660.6	573.7	477.4	377.4	265	142.2
303.15 K	583.7	540.5	494.2	443.9	387.3	323.9	257.5	181.7	97.82
308.15 K	389.9	363	333.5	301.1	263.5	220.7	175.6	123.8	67.02

CC(C)CCO + OCCCCO
viscosity [mPa·s], 100 kPa
Conditions	x1 = 0.0812	x1 = 0.1634	x1 = 0.2525	x1 = 0.3428	x1 = 0.4555	x1 = 0.5459	x1 = 0.6484	x1 = 0.7582	x1 = 0.8761
298.15 K	67.45	62.1	56.19	50.09	42.34	36.04	28.79	20.97	12.53
303.15 K	53.11	49.29	45.07	40.5	34.55	29.64	23.86	17.53	10.61
308.15 K	42.18	39.46	36.34	32.86	28.33	24.49	19.94	14.75	9.039
